Experimental data from PMC8682738, “Constrained peptides mimic a viral suppressor of RNA silencing” (Nucleic Acids Research, 2021).
“And” between values parts separate entries of the source, which are not always exact repeats. Equal values may be shown once. Positions of bridges follow the written chain, without caps; N, C: chain ends. Non-standard residues stand in square brackets, D forms with d. Residues, ends and D or L forms follow the SMILES beside them. *: point of attachment. FITC = O=C1OC2(c3ccc(O)cc3Oc3cc(O)ccc32)c2ccc(NC(=S)*)cc21; R8 = C=CCCCCCC[C@@](C)(N)C(=O)O; S5 = C=CCCC[C@](C)(N)C(=O)O; AEEA = NCCOCCOCC(=O)O

Legend:
miR-21 duplex = test: Thermal denaturation of miR-21 duplex (CD melting); type: binding; settings: miR-21 2 μM, unlabeled peptide 4 μM
Method: For each sample, 10 CD spectra were measured between λ = 200 and 350 nm with continuous scan mode (1 mdeg sensitivity, 1.0 nm resolution, 1.0 nm bandwidth, 2 s integration time, 100 nm·min^−1 scan rate). Obtained spectra were averaged and then subtracted from a reference buffer spectrum. CD data were normalized to oligonucleotide strand concentration using Formula (1):(1) where θ = observed ellipticity (mdeg), c = DNA strand concentration (mol·l^−1) and l = path length (cm).
Melting temperature (Tm) determination was conducted using the same instrumentation and sample preparation, where ellipticity (θ = 267 nm) was measured by ramping the temperature from 15–90°C (4°C·min^−1 ramp, ±0.05°C equilibration tolerance, 6 s delay after equilibration). Data points were recorded every 0.5°C. Raw data was normalized as described above and Tm-values were determined using the CDpal program ([44]) before being plotted in Prism 5.0 (GraphPad).

[1] = CD spectroscopy, secondary structure content; type: physicochemical; settings: fluorescein-labeled peptide 75 μM, 10 mM sodium phosphate pH 7.4, CDNN/PEPFIT; for Helix (α-helicity): unbound
proteinase K = proteinase K (Parengyodontium album, UniProt P06873); test: Protease stability assay; type: in vitro ADME; settings: for Half-life (t1/2): proteinase K 10 μg·ml^−1, fluorescein-labeled peptide 50 μM, 10 mM Tris pH 8.0, 150 mM NaCl, room temperature, HPLC absorbance 210 nm, exponential decay fit
proteinase K, sequence (P06873 106-384): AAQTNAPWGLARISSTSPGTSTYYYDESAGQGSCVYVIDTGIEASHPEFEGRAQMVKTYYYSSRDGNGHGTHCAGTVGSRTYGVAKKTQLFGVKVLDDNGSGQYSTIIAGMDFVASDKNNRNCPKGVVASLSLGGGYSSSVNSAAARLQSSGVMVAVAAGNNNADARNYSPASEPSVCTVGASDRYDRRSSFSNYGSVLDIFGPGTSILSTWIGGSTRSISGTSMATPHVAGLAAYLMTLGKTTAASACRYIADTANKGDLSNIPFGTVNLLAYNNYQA

ds miR-21 = test: EMSA with ds miR-21; type: binding; settings: peptide 6 μM, ds miR-21 3 μM
Method: Electrophoretic mobility shift assays (EMSAs) were performed using a Bio-Rad Mini-Protean gel system paired with a direct current (DC) power source (PowerPac™ HC, Bio-Rad). Typically, 6 μl solutions containing ds RNA (c = 3 μM) and fluorescein-labeled peptide (c = 6 μM) were incubated in binding buffer (10 mM Tris (pH 8.0), 0.5 mM EDTA, 12.5% glycerol and 150 mM KCl) at 4°C for 1 h. After incubation, bound RNA was resolved from peptide-free RNA using 10% non-denaturing polyacrylamide gels at 120 V in running buffer (25 mM Tris (pH 8.0), 200 mM glycine, 20 mM NaCl) at 4°C for 1 h. Visualization of fluorescent gel-bound species was conducted using a Typhoon Trio + fluorescence scanner (GE Healthcare Life Sciences). For nucleic acid visualization, gels were stained using 2 μl of SYBR™ gold nucleic acid gel dye (Molecular Probes) in 20 ml of TAE buffer (40 mM Tris, 1 mM EDTA, 20 mM acetic acid) for 45 min at RT before being visualized using a FluorChem™ gel documentation system (Alpha Innotech). To assess B3 binding to different ds RNA sequences (Supplementary Figure S20), 6 μl solutions containing hairpin RNA (c = 1 μM) and fluorescein-labeled B3 (c = 2 μM) were incubated in binding buffer (TAE and 10% glycerol) at RT for 1 h, and then resolved using 15% non-denaturing polyacrylamide gels (acrylamide/bis-acrylamide (19:1) in TAE) at 150 V in running buffer (TAE) at 4°C for 1.5 h. Visualization of fluorescent gel-bound species was conducted using a Bio-Rad ChemiDoc (Bio-Rad). Subsequently, gels were stained with SYBR™ gold nucleic acid gel dye (Invitrogen) as described above and visualized using the same imaging system. To assess B3 binding to pre–miR-21 (Supplementary Figure S24), the RNA was prepared at a fixed concentration (c = 1 μM) and incubated with varying concentrations of fluorescein-labeled B3 (c = 0–5 μM) in binding buffer (TAE and 10% glycerol) at RT for 1 h. […]

ds pal-RNA = test: EMSA with ds pal-RNA; type: binding; settings: fluorescein-labeled peptide 6 μM, RNA 3 μM, 10% native PAGE, 4°C
Method: Electrophoretic mobility shift assays (EMSAs) were performed using a Bio-Rad Mini-Protean gel system paired with a direct current (DC) power source (PowerPac™ HC, Bio-Rad). Typically, 6 μl solutions containing ds RNA (c = 3 μM) and fluorescein-labeled peptide (c = 6 μM) were incubated in binding buffer (10 mM Tris (pH 8.0), 0.5 mM EDTA, 12.5% glycerol and 150 mM KCl) at 4°C for 1 h. After incubation, bound RNA was resolved from peptide-free RNA using 10% non-denaturing polyacrylamide gels at 120 V in running buffer (25 mM Tris (pH 8.0), 200 mM glycine, 20 mM NaCl) at 4°C for 1 h. Visualization of fluorescent gel-bound species was conducted using a Typhoon Trio + fluorescence scanner (GE Healthcare Life Sciences). For nucleic acid visualization, gels were stained using 2 μl of SYBR™ gold nucleic acid gel dye (Molecular Probes) in 20 ml of TAE buffer (40 mM Tris, 1 mM EDTA, 20 mM acetic acid) for 45 min at RT before being visualized using a FluorChem™ gel documentation system (Alpha Innotech). To assess B3 binding to different ds RNA sequences (Supplementary Figure S20), 6 μl solutions containing hairpin RNA (c = 1 μM) and fluorescein-labeled B3 (c = 2 μM) were incubated in binding buffer (TAE and 10% glycerol) at RT for 1 h, and then resolved using 15% non-denaturing polyacrylamide gels (acrylamide/bis-acrylamide (19:1) in TAE) at 150 V in running buffer (TAE) at 4°C for 1.5 h. Visualization of fluorescent gel-bound species was conducted using a Bio-Rad ChemiDoc (Bio-Rad). Subsequently, gels were stained with SYBR™ gold nucleic acid gel dye (Invitrogen) as described above and visualized using the same imaging system. To assess B3 binding to pre–miR-21 (Supplementary Figure S24), the RNA was prepared at a fixed concentration (c = 1 μM) and incubated with varying concentrations of fluorescein-labeled B3 (c = 0–5 μM) in binding buffer (TAE and 10% glycerol) at RT for 1 h. After incubation, bound nucleic acid complexes were resolved using 15% non-denaturing polyacrylamide gels (acrylamide/bis-acrylamide (19:1) in TAE) at 150 V in running buffer (TAE) at 4°C for 1.5 h, followed by visualization and staining with SYBR™ gold nucleic acid gel dye (Invitrogen).

CC(C)C[C@@H]1NC(=O)[C@H](CCC(=O)O)NC(=O)[C@H](CO)NC(=O)[C@@](C)(NC(=O)[C@H](CCCNC(=N)N)NC(=O)[C@H](CCC(N)=O)NC(=O)[C@H](CCC(=O)O)NC(=O)[C@H](CO)NC(=O)[C@@H]2CCCN2C(=O)[C@H](CO)NC(=O)[C@H](CCCCN)NC(=O)[C@H](Cc2c[nH]cn2)NC(=O)[C@]2(C)CCCC=CCCCCCC[C@@](C)(NC(=O)[C@H](Cc3c[nH]cn3)NC(=O)[C@H](CCCNC(=N)N)NC(=O)[C@H](CCCCN)NC(=O)[C@H](CCCNC(=N)N)NC(=O)[C@H](CCC(N)=O)NC(=O)[C@H](C)NC(=O)[C@H](CCC(N)=O)NC(=O)[C@H](CCCCN)NC(=O)[C@H](CCCCN)NC(=O)COCCOCCNC(=S)Nc3ccc4c(c3)C(=O)OC43c4ccc(O)cc4Oc4cc(O)ccc43)C(=O)N[C@@H](CC(C)C)C(=O)N[C@@H](CC(N)=O)C(=O)N[C@@H](CCCNC(=N)N)C(=O)N[C@@H](CCCCN)C(=O)N[C@@H](CCC(=O)O)C(=O)N[C@@H](CCCNC(=N)N)C(=O)N2)CCCC=CCCC[C@@](C)(C(=O)N[C@@H](Cc2c[nH]cn2)C(=O)N[C@@H](C)C(=O)N[C@@H](CCCNC(=N)N)C(N)=O)NC1=O [D1] ({FITC-AEEA}-KKQAQRKRH[R8]LNRKER[S5]HKSPSEQR[S5]SEL[S5]HAR-NH2; staple 10-17, 26-30)
ΔTm of miR-21 duplex (miR-21 duplex): only showed a mild effect on duplex stability
Random coil [1]: 31.2%
β-Sheet [1]: 12.0%
β-Turn [1]: 9.9%
Helix (α-helicity) [1]: 48.5%
Half-life (t1/2) (proteinase K): 4.65 h
binding to ds miR-21 in EMSA (ds miR-21): did not show binding
binding to ds pal-RNA in EMSA (ds pal-RNA): does not bind to ds pal-RNA

CC(C)C[C@H](NC(=O)[C@]1(C)CCCC=CCCC[C@](C)(NC(=O)[C@H](CCC(=O)O)NC(=O)[C@H](CO)NC(=O)[C@@H]2CCCN2C(=O)[C@H](CO)NC(=O)[C@H](CCCCN)NC(=O)[C@H](Cc2c[nH]cn2)NC(=O)CNC(=O)[C@H](CCCNC(=N)N)NC(=O)[C@]2(C)CCCC=CCCC[C@](C)(NC(=O)[C@H](CCCCN)NC(=O)[C@H](Cc3c[nH]cn3)NC(=O)[C@H](CCCNC(=N)N)NC(=O)[C@H](CCCCN)NC(=O)[C@H](CCCNC(=N)N)NC(=O)[C@H](CCC(N)=O)NC(=O)[C@H](C)NC(=O)[C@H](CCC(N)=O)NC(=O)[C@H](CCCCN)NC(=O)[C@H](CCCCN)NC(=O)COCCOCCNC(=S)Nc3ccc4c(c3)C(=O)OC43c4ccc(O)cc4Oc4cc(O)ccc43)C(=O)N[C@@H](CC(N)=O)C(=O)N[C@@H](CCCNC(=N)N)C(=O)N[C@@H](CCCCN)C(=O)N2)C(=O)N[C@@H](CCCNC(=N)N)C(=O)N[C@@H](CCCNC(=N)N)C(=O)N[C@@H](CO)C(=O)N1)C(=O)N[C@@H](Cc1c[nH]c2ccccc12)C(=O)N[C@@H](Cc1c[nH]cn1)C(=O)N[C@@H](C)C(=O)N[C@@H](CCCNC(=N)N)C(N)=O [B3] ({FITC-AEEA}-KKQAQRKRHK[S5]NRK[S5]RGHKSPSE[S5]RRS[S5]LWHAR-NH2; staple 11-15, 24-28)
ΔTm of miR-21 duplex (miR-21 duplex): > 10 °C
Random coil [1]: 9.3%
β-Sheet [1]: 2.0%
β-Turn [1]: 13.9%
Helix (α-helicity) [1]: 85.0% and 82–85%
Half-life (t1/2) (proteinase K): 6.18 h
binding to ds miR-21 in EMSA (ds miR-21): formation of peptide/RNA complexes
binding to ds pal-RNA in EMSA (ds pal-RNA): full disappearance of the ds pal-RNA band

CC(C)C[C@@H]1NC(=O)[C@@](C)(NC(=O)[C@H](CO)NC(=O)[C@H](CCCNC(=N)N)NC(=O)[C@H](CCCNC(=N)N)NC(=O)[C@H](CCC(N)=O)NC(=O)[C@H](CCC(=O)O)NC(=O)[C@H](CO)NC(=O)[C@@H]2CCCN2C(=O)[C@H](CO)NC(=O)[C@H](CCCCN)NC(=O)[C@H](Cc2c[nH]cn2)NC(=O)CNC(=O)[C@H](CCCNC(=N)N)NC(=O)[C@H](CCC(=O)O)NC(=O)[C@H](CCCCN)NC(=O)[C@H](CCCNC(=N)N)NC(=O)[C@H](CC(N)=O)NC(=O)[C@]2(C)CCCC=CCCCCCC[C@@](C)(NC(=O)[C@H](CCC(N)=O)NC(=O)[C@H](CCCCN)NC(=O)[C@H](CCCCN)NC(=O)COCCOCCNC(=S)Nc3ccc4c(c3)C(=O)OC43c4ccc(O)cc4Oc4cc(O)ccc43)C(=O)N[C@@H](CCC(N)=O)C(=O)N[C@@H](CCCNC(=N)N)C(=O)N[C@@H](CCCCN)C(=O)N[C@@H](CCCNC(=N)N)C(=O)N[C@@H](Cc3c[nH]cn3)C(=O)N[C@@H](CCCCN)C(=O)N2)CCCC=CCCC[C@@](C)(C(=O)N[C@@H](CCCNC(=N)N)C(N)=O)NC(=O)[C@H](Cc2c[nH]cn2)NC(=O)[C@H](Cc2c[nH]c3ccccc23)NC1=O [C1] ({FITC-AEEA}-KKQ[R8]QRKRHK[S5]NRKERGHKSPSEQRRS[S5]LWH[S5]R-NH2; staple 4-11, 28-32)
ΔTm of miR-21 duplex (miR-21 duplex): > 10 °C
Random coil [1]: 47.0%
β-Sheet [1]: 0.2%
β-Turn [1]: 1.8%
Helix (α-helicity) [1]: 81.5% and 82–85%
Half-life (t1/2) (proteinase K): 10.6 h
fold increased stability compared to wt33 (proteinase K; proteinase K, fluorescein-labeled peptides): 265 fold
binding to ds miR-21 in EMSA (ds miR-21): formation of peptide/RNA complexes
binding to ds pal-RNA in EMSA (ds pal-RNA): full disappearance of the ds pal-RNA band
